Assay results reported in PubChem BioAssay AID1918957 (Molecular Pharmacology Branch, DTP, NCI, 2023).

Tested on: NCI-H1876 complex spheroid viability
Assay: Anticancer human tumor NCI-H1876 cell line growth inhibition [LSD1];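 also: spheroids exposed to compounds for one week before readout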;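 as to viability, T/C: 100% = DMSO vehicle-treated spheroids so lower means fewer viable cells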
Conditions: for IC50: curve of first compound; for viability, T/C: stronger effect = lower value
Procedure, shortened: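 Multicellular complex spheroids of tumor cells with human endothelial cells (HUVEC) and mesenchymal stem cells; the LSD1 inhibitor iadademstat was combined with standard-of-care or investigational agents. Top concentration at or near clinical Cmax, half-log dilutions; final DMSO ≤0.25%.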

[1] = second compound 0.1 µM, first compound 0.0316 µM
[2] = second compound 0.1 µM, first compound 0.1 µM
[3] = second compound 0.1 µM, first compound 0.316 µM
[4] = second compound 0.1 µM, first compound 1 µM
[5] = second compound 0.1 µM, first compound 3.16 µM
[6] = second compound 0.1 µM, first compound 10 µM
[7] = second compound 0.316 µM, first compound 0.0316 µM
[8] = second compound 0.316 µM, first compound 0.1 µM
[9] = second compound 0.316 µM, first compound 0.316 µM
[10] = second compound 0.316 µM, first compound 1 µM
[11] = second compound 0.316 µM, first compound 3.16 µM
[12] = second compound 0.316 µM, first compound 10 µM
[13] = second compound 1 µM, first compound 0.0316 µM
[14] = second compound 1 µM, first compound 0.1 µM
[15] = second compound 1 µM, first compound 0.316 µM
[16] = second compound 1 µM, first compound 1 µM
[17] = second compound 1 µM, first compound 3.16 µM
[18] = second compound 1 µM, first compound 10 µM
[19] = second compound 3.16 µM, first compound 0.0316 µM
[20] = second compound 3.16 µM, first compound 0.1 µM
[21] = second compound 3.16 µM, first compound 0.316 µM
[22] = second compound 3.16 µM, first compound 1 µM
[23] = second compound 3.16 µM, first compound 3.16 µM
[24] = second compound 3.16 µM, first compound 10 µM
[25] = second compound 10 µM, first compound 0.0316 µM
[26] = second compound 10 µM, first compound 0.1 µM
[27] = second compound 10 µM, first compound 0.316 µM
[28] = second compound 10 µM, first compound 1 µM
[29] = second compound 10 µM, first compound 3.16 µM
[30] = second compound 10 µM, first compound 10 µM
[31] = second compound 0.1 µM, first compound 0.00316 µM
[32] = second compound 0.1 µM, first compound 0.01 µM
[33] = second compound 0.316 µM, first compound 0.00316 µM
[34] = second compound 0.316 µM, first compound 0.01 µM
[35] = second compound 1 µM, first compound 0.00316 µM
[36] = second compound 1 µM, first compound 0.01 µM
[37] = second compound 3.16 µM, first compound 0.00316 µM
[38] = second compound 3.16 µM, first compound 0.01 µM
[39] = second compound 10 µM, first compound 0.00316 µM
[40] = second compound 10 µM, first compound 0.01 µM

SMILES | IC50 (second compound 0.1 µM) [µM] | IC50 (second compound 0.316 µM) [µM] | IC50 (second compound 1 µM) [µM] | IC50 (second compound 3.16 µM) [µM] | IC50 (second compound 10 µM) [µM] | viability, T/C [1] [%] | viability, T/C [2] [%] | viability, T/C [3] [%] | viability, T/C [4] [%] | viability, T/C [7] [%] | viability, T/C [8] [%] | viability, T/C [9] [%] | viability, T/C [10] [%] | viability, T/C [13] [%] | viability, T/C [14] [%] | viability, T/C [15] [%] | viability, T/C [16] [%] | viability, T/C [19] [%] | viability, T/C [20] [%] | viability, T/C [21] [%] | also measured
CC(C)c1c(-c2ccccc2)nc2c(C#N)c[nH]n2c1=O + NC1CC1c1ccc(-c2cccc(O)c2)cc1 | 7.37 | 7.73 | 7.78 | 6.29 | 4.8 | 97.2 | 96.2 | 97.3 | 93.2 | 99.3 | 102 | 102 | 111 | 102 | 101 | 101 | 106 | 101 | 98.2 | 96.6 | viability, T/C [5]: 87.2%; viability, T/C [6]: 36.5%; viability, T/C [11]: 91%; viability, T/C [12]: 38.2%; viability, T/C [17]: 98.5%; viability, T/C [18]: 36.5%; viability, T/C [22]: 96.5%; viability, T/C [23]: 87.3%; viability, T/C [24]: 24.8%; viability, T/C [25]: 84.7%; viability, T/C [26]: 85.7%; viability, T/C [27]: 91.2%; viability, T/C [28]: 88%; viability, T/C [29]: 73.2%; viability, T/C [30]: 9.44%
CC1COCCN1c1cc(-c2ccnn2C)c2ccnc(-c3ccn[nH]3)c2n1 (stereo not given) + NC1CC1c1ccc(-c2cccc(O)c2)cc1 | 0.00389 | 0.00377 | 0.00413 | < 0.00316 | < 0.00316 | 16.5 | 4.97 | 3.26 | 3.75 | 17.6 | 4.99 | 3.15 | 3.99 | 19.2 | 5.94 | 3.81 | 4.68 | 18.3 | 5.67 | 3.74 | viability, T/C [31]: 51.9%; viability, T/C [32]: 41.5%; viability, T/C [33]: 51.6%; viability, T/C [34]: 41.4%; viability, T/C [35]: 51.9%; viability, T/C [36]: 43.7%; viability, T/C [37]: 43%; viability, T/C [38]: 39.5%; viability, T/C [22]: 4.48%; viability, T/C [39]: 37.5%; viability, T/C [40]: 31.5%; viability, T/C [25]: 16.8%; viability, T/C [26]: 6.91%; viability, T/C [27]: 4.75%; viability, T/C [28]: 5.76%
COc1ccc([C@@H](O)c2cc(-c3ncnc4cc(N5CCOCC5)ccc34)c(F)cc2Cl)nn1 + NC1CC1c1ccc(-c2cccc(O)c2)cc1 | 1.87 | 1.89 | 1.73 | 1.1 | 0.546 | 89.6 | 91.2 | 87.8 | 67.8 | 92.5 | 93.1 | 86.1 | 71 | 103 | 102 | 88.5 | 67.5 | 93.9 | 91.3 | 79.3 | viability, T/C [5]: 34.7%; viability, T/C [6]: 9.23%; viability, T/C [11]: 33.3%; viability, T/C [12]: 9.61%; viability, T/C [17]: 31.3%; viability, T/C [18]: 9%; viability, T/C [22]: 50%; viability, T/C [23]: 26%; viability, T/C [24]: 6.12%; viability, T/C [25]: 90.3%; viability, T/C [26]: 83.2%; viability, T/C [27]: 58.6%; viability, T/C [28]: 38%; viability, T/C [29]: 17.8%; viability, T/C [30]: 2.16%
O=C(C=Cn1cnc(-c2cc(C(F)(F)F)cc(C(F)(F)F)c2)n1)NNc1cnccn1 + NC1CC1c1ccc(-c2cccc(O)c2)cc1 | 0.078 | 0.0786 | 0.083 | 0.086 | 0.109 | 77.9 | 42.8 | 16.4 | 11.7 | 81.8 | 42 | 16.4 | 11.3 | 83.1 | 44.1 | 16.7 | 12.9 | 78.7 | 46.9 | 18.2 | viability, T/C [31]: 96.7%; viability, T/C [32]: 97.2%; viability, T/C [33]: 105%; viability, T/C [34]: 104%; viability, T/C [35]: 97.5%; viability, T/C [36]: 103%; viability, T/C [37]: 97.1%; viability, T/C [38]: 99.5%; viability, T/C [22]: 14.1%; viability, T/C [39]: 96%; viability, T/C [40]: 92.4%; viability, T/C [25]: 81.1%; viability, T/C [26]: 53.5%; viability, T/C [27]: 22.8%; viability, T/C [28]: 18.4%
Nc1ncn(C2CC(O)C(CO)O2)c(=O)n1 (stereo not given) + NC1CCC(NC2CC2c2ccccc2)CC1 | > 1 | > 1 | > 1 | > 1 | > 1 | 99.7 | 97.5 | 98.7 | 96.2 | 99.8 | 98.5 | 92.5 | 86.6 | 100 | 97.9 | 93.5 | 92.2 | 102 | 97.6 | 92.6 | viability, T/C [31]: 104%; viability, T/C [32]: 109%; viability, T/C [33]: 103%; viability, T/C [34]: 98.8%; viability, T/C [35]: 102%; viability, T/C [36]: 109%; viability, T/C [37]: 98.6%; viability, T/C [38]: 104%; viability, T/C [22]: 95.8%; viability, T/C [39]: 99.3%; viability, T/C [40]: 100%; viability, T/C [25]: 96.7%; viability, T/C [26]: 106%; viability, T/C [27]: 92.8%; viability, T/C [28]: 97.1%
